# Reference: patent publication US20090215895A1, “Therapeutic and carrier molecules” (PEPLIN BIOLIPIDS PTY LTD, priority 2004, published 2009)
# Tests used:
# E-selectin = assay: Adhesion molecule expression on HUVEC (ELISA, mRNA slot blot); type: cell-based, human; conditions: for Suppression of TNF-α-induced E-selectin expression on HUVEC: 60 min pre-treatment
# Procedure: FIG. 13 is a representation showing effect of MP3 (β-oxa-23:4n-6) and 20:4n-6 on time-related changes in TNF-α-induced E-selectin, ICAM-1 and VCAM-1 expression on HUVEC. HUVEC were pre-treated with 20 μmol/l β-oxa-23:4n-6 (closed triangles), 20 μmol/l 20:4n-6 (open squares), or DPC (control) for 60 min and then further incubated with TNF-α (125 U/200 μl medium) for up to 24 hr. The expression of E-selectin, ICAM-1 and VCAM-1 adhesion molecules was determined by ELISA. The results are expressed as % of control and represent the mean±SEM of three separate experiments each performed in triplicate. * p<0.05, **p<0.01, ***p<0.001, for significant differences between pre-treatment with fatty acid and corresponding control at a particular time point (one-way analysis of variance followed by the Dunnett test for multiple comparisons). Inset: The effect of β-oxa-23:4n-6 on TNF-α-induced expression of E-selectin mRNA in HUVEC. HUVEC were pre-incubated with β-oxa-23:4n-6 (20 μmol/l) or DPC (control) in 1 ml of medium at 37° C. for 60 min. After the addition of TNF-α, the cells were further incubated at 37° C. for 2 hr. E-selectin mRNA expression was then determined and the results expressed as relative %. Results are the mean±SEM of three separate experiments each performed in quadruplicate. *p<0.0001, for significant differences between pre-treatment with β-oxa-23:4n-6, and control (two-tailed Student's t-test for unpaired data).
# HUVEC were stimulated with TNF, bacterial lipopolysaccharide (LPS) or PMA for 24 hr. Expression of E-selectin, ICAM-1 and VCAM-1 was determined by an enzyme-linked immunosorbent assay (ELISA) or as mRNA using a slot blot technique (Huang et al 1997 supra).
# NFκB p65 = assay: TNF-stimulated nuclear translocation of NFκB in HUVEC; type: cell-based, human; conditions: 20 μmol/l
# Procedure: FIG. 17 is a representation showing (A) the effect of MP3 (β-oxa 23:4n-6) and DHA on TNF-induced degradation of IκBα in HUVEC. Cells were pre-treated with the fatty acids (20 μmol/l) for 30 min and then stimulated with TNF (125 U/ml) for 10 min. After cell lysis the proteins were analyzed by Western blots using anti-IκBα antibodies. (B) The effects of β-oxa-23:4n-6 on TNF-induced activation of transcriptional factor, NFκB in HUVEC. Cells were pre-treated with β-oxa-23:4n-6 (20 μmol/l) for 30 min and then stimulated with TNF for 2 hr. After cell lysis, nuclear fractions were prepared, nuclear proteins separated by SDS PAGE (12% w/v gel), transferred to nitrocellulose and probed with an anti-NFκB p65 antibody (Santa Cruz). […] (C) The effect of β-oxa 23:4n-6 on TNF-stimulated activation of IKK. Cells were pre-treated with β-oxa 23:4n-6 (20 μmol/l) for 30 min and then stimulated with TNF for 5 min. After cell lysis IKK was immunoprecipitated with anti-IKKα antibody and kinase activity determined. […]
# Proteins (50 μg) were separated by SDS PAGE (12% w/v gel), transferred to nitrocellulose and probed with an anti-NFκB p65 or anti-IκBα antibody (Santa Cruz Biotech, Santa Cruz, Calif.). Immunocomplexes were detected by enhanced chemiluminescence (Hii et al, 1998 supra).
# [1] = Delayed type hypersensitivity (DTH) to sheep erythrocytes; type: in vivo, BALB/c mice; conditions: 10 mg/kg intraperitoneally prior to antigen challenge
# Procedure: FIG. 14 is a representation showing (A) effect of MP3 on in vivo inflammatory response measured as delayed type hypersensitivity (DTH) to sheep erythrocytes and LPS-induced influx of neutrophils and mononuclear cells in the peritoneal cavity in BALB/c mice. In the DTH experiments mice were injected with sheep erythrocytes subcutaneously, challenged with the antigen in the hind foot pad 6 days later and the amount of foot pad swelling measured 48 hr later. One hour prior to challenge mice were given 10 mg/kg body weight of β-oxa fatty acid in 7% w/v, DMSO as vehicle intraperitoneally. […] The data, expressed as % of control, are presented as mean±SEM of 10 and 5 mice for DTH and peritoneal inflammation, respectively. […] The data, expressed as % of control, are presented as mean±SEM of ten mice per group and is representative of two experimental runs. […]
# Effect of MP3 (β-oxa-23:4n-6) on the in vivo inflammatory response was measured as a delayed type hypersensitivity (DTH) reaction and LPS-induced influx of neutrophils and mononuclear cells in the peritoneal cavity in BALB/c mice. For DTH experiments, mice were injected subcutaneously with 100 μl of 10% hematocrit sheep erythrocytes, challenged with the antigen (25 μl of 40%) in the hind foot pad 6 days later and the degree of foot pad swelling measured 48 hr later (Ferrante et al, Clin. & Exp. Immunol. 38:70-76, 1979). […]
smiles,measurement,setting,value
"CCCCC/C=C\C/C=C\C/C=C\C/C=C\CCCCOCC(=O)O [MP3, β-oxa-23:4n-6]",TNF-α-induced expression of E-selectin mRNA,"E-selectin; 20 μmol/l, 60 min, TNF-α 2 hr",substantially depressed
same,Suppression of TNF-α-induced E-selectin expression on HUVEC,E-selectin; 20 μmol/l,better than docosahexaenoic acid (22:6n-3) at suppressing
same,Suppression of TNF-α-induced E-selectin expression on HUVEC,"E-selectin; 20 μmol/l, listed as β-oxa-23:4n-6",inhibited the expression
same,Time of cytokine treatment at maximum inhibition of E-selectin expression,"E-selectin; 20 μmol/l, TNF-α",4 h
same,Inhibition of LPS and PMA-induced up-regulation of E-selectin,E-selectin; HUVEC,"inhibited LPS and PMA-induced, up-regulation"
same,Reduction of TNF-stimulated nuclear accumulation of NFκB,"NFκB p65; 30 min, TNF 2 hr, mean±SEM, three experiments",66±2%
same,Translocation of NFκB to the nucleus,NFκB p65; TNF,inhibition of translocation of NFκB to the nucleus
same,Delayed type hypersensitivity reaction (foot pad swelling),[1],inhibited in ability to manifest a delayed type hypersensitivity reaction
